# Test results published in paper doi:10.1101/2024.08.19.608619, “Discovery of potent SARS-CoV-2 nsp3 macrodomain inhibitors uncovers lack of translation to cellular antiviral response” (bioRxiv, 2024).
# Read-outs that look alike come from different tables or passages of the source.
# Legend:
# Assay in all cases: biochemical
# Parameters in all cases: In vitro kinase panel profiling, per cent remaining kinase activity at 10 uM
# CK2α2(h) = biological target: T1, CK2α2(h) (Homo sapiens, UniProt P19784); conditions: atp_concentration=10, read-out: % of control remaining
# T1 construct: gene CSNK2A2
# Description: (§1) We derisk potential for off-target activity by profiling the compound in a CEREP panel, a standard secondary pharmacology assessment, as well as a kinase panel to derisk a potential hinge-binding motif in our leads, and a PARP panel to derisk activity against human […]. Reassuringly, the compounds are selective, with the only off-targets being moderate human CHRM2 and KOR receptors activity associated with ASAP-0011198.
# MLK1(h) = biological target: T2, MLK1(h) (Homo sapiens, UniProt P80192); conditions: atp_concentration=45, read-out: % of control remaining
# T2 construct: gene MAP3K9
# Description: as §1
# Mnk2(h) = biological target: T3, Mnk2(h) (Homo sapiens, UniProt Q9HBH9); conditions: atp_concentration=120, read-out: % of control remaining
# T3 construct: gene MKNK2
# Description: as §1
# PKBα(h) = biological target: T4, PKBα(h) (Homo sapiens, UniProt P31749); conditions: atp_concentration=155, read-out: % of control remaining
# T4 construct: gene AKT1
# Description: as §1
# CDK1/cyclinB(h) = CDK1/cyclinB(h) (Homo sapiens, UniProt P06493); conditions: atp_concentration=45, read-out: % of control remaining
# Description: as §1
# CDK2/cyclinA(h) = CDK2/cyclinA(h) (Homo sapiens, UniProt P24941); conditions: atp_concentration=45, read-out: % of control remaining
# Description: as §1
# Abl(h) = biological target: T5, Abl(h) (Homo sapiens, UniProt P00519); conditions: atp_concentration=45, read-out: % of control remaining
# T5 construct: gene ABL1
# Description: as §1
# PAK2(h) = PAK2(h) (Homo sapiens, UniProt Q13177); conditions: atp_concentration=90, read-out: % of control remaining
# Description: as §1
# IGF-1R(h) = biological target: T6, IGF-1R(h) (Homo sapiens, UniProt P08069); conditions: atp_concentration=200, read-out: % of control remaining
# T6 construct: gene IGF1R
# Description: as §1
# EGFR(h) = EGFR(h) (Homo sapiens, UniProt P00533); conditions: atp_concentration=10, read-out: % of control remaining
# Description: as §1
# PKA(h) = biological target: T7, PKA(h) (Homo sapiens, UniProt P17612); conditions: atp_concentration=10, read-out: % of control remaining
# T7 construct: gene PRKACA
# Description: as §1
# EphA5(h) = EphA5(h) (Homo sapiens, UniProt P54756); conditions: atp_concentration=10, read-out: % of control remaining
# Description: as §1
# GSK3β(h) = biological target: T8, GSK3β(h) (Homo sapiens, UniProt P49841); conditions: atp_concentration=15, read-out: % of control remaining
# T8 construct: gene GSK3B
# Description: as §1
# AMPKα1(h) = biological target: T9, AMPKα1(h) (Homo sapiens, UniProt Q13131); conditions: atp_concentration=45, read-out: % of control remaining
# T9 construct: gene PRKAA1
# Description: as §1
# TAK1(h) = biological target: T10, TAK1(h) (Homo sapiens, UniProt O43318); conditions: atp_concentration=45, read-out: % of control remaining
# T10 construct: gene MAP3K7
# T10 sequence (O43318 1-606): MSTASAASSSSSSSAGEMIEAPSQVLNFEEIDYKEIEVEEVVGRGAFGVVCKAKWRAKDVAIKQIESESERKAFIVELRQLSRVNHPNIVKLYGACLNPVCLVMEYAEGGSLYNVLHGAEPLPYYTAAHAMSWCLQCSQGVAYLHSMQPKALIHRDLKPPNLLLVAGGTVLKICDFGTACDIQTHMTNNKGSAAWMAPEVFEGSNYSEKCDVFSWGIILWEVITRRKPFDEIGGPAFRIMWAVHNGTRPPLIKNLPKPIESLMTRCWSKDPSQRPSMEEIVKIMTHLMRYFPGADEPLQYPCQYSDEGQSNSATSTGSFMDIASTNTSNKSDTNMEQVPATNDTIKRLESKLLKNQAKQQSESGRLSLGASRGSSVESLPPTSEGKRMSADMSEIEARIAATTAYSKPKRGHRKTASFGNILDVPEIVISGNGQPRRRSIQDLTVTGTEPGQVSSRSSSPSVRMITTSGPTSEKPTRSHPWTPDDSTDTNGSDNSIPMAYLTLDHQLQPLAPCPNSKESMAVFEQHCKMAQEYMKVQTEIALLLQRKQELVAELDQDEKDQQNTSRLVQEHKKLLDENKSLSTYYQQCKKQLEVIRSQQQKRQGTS
# Description: as §1
# c-RAF(h) = biological target: T11, c-RAF(h) (Homo sapiens, UniProt P04049); conditions: atp_concentration=120, read-out: % of control remaining
# T11 construct: gene RAF1
# Description: as §1
# T4 sequence (P31749 whole entry): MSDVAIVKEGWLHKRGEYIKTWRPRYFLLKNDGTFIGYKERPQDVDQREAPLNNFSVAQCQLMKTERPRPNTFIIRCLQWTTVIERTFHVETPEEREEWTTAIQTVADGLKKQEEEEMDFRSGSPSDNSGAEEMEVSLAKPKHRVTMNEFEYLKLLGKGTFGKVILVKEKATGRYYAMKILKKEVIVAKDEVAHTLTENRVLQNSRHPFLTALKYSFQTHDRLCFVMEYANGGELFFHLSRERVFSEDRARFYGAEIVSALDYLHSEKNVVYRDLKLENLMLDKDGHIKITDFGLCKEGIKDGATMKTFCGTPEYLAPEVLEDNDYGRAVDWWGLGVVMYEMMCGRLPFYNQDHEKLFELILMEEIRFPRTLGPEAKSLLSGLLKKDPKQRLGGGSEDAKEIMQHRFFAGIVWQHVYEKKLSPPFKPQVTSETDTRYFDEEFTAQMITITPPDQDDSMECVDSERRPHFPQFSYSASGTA
# T5 sequence (P00519 whole entry): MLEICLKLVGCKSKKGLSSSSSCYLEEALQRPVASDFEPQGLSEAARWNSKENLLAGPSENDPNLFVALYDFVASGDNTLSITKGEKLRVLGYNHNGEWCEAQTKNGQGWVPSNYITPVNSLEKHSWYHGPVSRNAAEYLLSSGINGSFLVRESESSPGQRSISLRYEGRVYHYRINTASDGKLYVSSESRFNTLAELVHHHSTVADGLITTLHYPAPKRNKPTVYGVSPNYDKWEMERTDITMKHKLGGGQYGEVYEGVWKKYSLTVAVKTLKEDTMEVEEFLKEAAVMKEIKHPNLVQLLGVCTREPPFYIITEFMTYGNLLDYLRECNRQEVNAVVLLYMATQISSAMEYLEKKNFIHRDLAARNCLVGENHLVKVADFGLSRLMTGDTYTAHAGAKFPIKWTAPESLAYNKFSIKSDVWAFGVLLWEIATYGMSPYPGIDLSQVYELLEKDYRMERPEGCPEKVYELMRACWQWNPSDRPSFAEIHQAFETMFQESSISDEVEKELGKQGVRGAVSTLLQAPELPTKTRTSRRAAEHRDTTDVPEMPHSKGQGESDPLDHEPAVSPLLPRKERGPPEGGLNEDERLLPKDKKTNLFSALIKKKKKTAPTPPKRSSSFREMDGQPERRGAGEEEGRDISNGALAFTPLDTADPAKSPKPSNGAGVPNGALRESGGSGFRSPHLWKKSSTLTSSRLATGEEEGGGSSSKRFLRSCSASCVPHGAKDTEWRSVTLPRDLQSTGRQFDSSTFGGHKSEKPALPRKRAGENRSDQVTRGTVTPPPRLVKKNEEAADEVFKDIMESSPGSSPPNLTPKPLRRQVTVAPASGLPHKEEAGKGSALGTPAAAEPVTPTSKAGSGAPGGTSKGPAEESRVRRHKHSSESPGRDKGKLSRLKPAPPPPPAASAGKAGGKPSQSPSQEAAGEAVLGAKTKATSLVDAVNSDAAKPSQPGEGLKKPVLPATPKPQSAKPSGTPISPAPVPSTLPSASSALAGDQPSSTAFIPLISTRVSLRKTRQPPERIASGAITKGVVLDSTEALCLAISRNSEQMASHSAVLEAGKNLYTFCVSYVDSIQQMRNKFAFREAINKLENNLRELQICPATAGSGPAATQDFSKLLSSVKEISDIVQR
# Chain of EGFR(h) (P00533 whole entry): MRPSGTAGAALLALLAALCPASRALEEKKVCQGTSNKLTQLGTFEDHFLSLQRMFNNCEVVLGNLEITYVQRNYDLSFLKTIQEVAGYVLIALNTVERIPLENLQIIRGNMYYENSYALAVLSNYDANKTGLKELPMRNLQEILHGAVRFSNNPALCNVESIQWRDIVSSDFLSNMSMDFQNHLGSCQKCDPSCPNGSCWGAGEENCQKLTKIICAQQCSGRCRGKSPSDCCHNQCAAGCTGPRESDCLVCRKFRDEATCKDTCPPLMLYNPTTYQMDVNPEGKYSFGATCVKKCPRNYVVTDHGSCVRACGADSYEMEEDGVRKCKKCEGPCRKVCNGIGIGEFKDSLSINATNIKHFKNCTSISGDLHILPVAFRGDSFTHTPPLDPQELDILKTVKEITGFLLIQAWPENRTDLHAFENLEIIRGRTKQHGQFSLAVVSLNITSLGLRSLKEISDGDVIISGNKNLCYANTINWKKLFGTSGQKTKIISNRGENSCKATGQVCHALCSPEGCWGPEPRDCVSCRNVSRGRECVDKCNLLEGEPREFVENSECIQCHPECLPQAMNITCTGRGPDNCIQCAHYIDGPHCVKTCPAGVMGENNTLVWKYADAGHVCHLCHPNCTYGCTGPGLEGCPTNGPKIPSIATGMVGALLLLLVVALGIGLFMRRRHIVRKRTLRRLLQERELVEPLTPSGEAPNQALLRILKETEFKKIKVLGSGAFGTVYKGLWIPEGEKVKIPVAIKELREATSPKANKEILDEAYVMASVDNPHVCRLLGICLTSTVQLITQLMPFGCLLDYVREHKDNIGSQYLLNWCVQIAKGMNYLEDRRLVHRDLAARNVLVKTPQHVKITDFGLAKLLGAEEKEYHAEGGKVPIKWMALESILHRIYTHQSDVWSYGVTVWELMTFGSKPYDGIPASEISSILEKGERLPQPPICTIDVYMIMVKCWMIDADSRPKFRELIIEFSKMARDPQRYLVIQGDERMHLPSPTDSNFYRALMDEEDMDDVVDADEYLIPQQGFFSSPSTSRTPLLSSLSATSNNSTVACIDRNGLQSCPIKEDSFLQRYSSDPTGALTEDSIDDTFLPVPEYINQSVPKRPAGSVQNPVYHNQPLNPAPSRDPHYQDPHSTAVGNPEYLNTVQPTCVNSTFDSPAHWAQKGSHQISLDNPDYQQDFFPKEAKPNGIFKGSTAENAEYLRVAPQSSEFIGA
# Chain of EphA5(h) (P54756 whole entry): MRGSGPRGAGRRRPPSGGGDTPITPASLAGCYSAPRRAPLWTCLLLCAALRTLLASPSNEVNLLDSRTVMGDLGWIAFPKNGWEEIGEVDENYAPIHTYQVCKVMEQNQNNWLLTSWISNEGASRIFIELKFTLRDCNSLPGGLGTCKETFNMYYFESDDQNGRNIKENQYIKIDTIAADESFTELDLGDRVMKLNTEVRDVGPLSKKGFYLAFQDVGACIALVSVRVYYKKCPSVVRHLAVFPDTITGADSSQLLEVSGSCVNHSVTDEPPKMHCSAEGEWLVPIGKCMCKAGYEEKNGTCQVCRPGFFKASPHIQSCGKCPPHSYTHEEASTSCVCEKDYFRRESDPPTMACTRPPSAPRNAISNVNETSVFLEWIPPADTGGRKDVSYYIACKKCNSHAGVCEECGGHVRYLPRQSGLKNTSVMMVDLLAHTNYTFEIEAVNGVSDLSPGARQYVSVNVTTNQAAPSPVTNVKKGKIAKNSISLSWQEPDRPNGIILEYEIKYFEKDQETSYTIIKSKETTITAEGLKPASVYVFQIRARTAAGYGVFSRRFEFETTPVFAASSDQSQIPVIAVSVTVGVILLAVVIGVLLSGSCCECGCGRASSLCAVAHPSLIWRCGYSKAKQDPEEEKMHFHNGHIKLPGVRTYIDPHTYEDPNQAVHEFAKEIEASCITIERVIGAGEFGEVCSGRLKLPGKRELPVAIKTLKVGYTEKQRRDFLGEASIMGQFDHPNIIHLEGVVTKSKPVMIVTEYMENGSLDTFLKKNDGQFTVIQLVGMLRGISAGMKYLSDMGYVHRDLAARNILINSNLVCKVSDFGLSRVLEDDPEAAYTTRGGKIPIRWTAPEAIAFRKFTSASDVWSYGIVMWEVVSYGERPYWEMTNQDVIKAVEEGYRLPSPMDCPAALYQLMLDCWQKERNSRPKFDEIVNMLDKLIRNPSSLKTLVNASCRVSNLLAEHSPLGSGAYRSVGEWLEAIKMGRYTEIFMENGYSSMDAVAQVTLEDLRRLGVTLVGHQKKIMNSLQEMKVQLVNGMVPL
# T2 sequence (P80192 whole entry): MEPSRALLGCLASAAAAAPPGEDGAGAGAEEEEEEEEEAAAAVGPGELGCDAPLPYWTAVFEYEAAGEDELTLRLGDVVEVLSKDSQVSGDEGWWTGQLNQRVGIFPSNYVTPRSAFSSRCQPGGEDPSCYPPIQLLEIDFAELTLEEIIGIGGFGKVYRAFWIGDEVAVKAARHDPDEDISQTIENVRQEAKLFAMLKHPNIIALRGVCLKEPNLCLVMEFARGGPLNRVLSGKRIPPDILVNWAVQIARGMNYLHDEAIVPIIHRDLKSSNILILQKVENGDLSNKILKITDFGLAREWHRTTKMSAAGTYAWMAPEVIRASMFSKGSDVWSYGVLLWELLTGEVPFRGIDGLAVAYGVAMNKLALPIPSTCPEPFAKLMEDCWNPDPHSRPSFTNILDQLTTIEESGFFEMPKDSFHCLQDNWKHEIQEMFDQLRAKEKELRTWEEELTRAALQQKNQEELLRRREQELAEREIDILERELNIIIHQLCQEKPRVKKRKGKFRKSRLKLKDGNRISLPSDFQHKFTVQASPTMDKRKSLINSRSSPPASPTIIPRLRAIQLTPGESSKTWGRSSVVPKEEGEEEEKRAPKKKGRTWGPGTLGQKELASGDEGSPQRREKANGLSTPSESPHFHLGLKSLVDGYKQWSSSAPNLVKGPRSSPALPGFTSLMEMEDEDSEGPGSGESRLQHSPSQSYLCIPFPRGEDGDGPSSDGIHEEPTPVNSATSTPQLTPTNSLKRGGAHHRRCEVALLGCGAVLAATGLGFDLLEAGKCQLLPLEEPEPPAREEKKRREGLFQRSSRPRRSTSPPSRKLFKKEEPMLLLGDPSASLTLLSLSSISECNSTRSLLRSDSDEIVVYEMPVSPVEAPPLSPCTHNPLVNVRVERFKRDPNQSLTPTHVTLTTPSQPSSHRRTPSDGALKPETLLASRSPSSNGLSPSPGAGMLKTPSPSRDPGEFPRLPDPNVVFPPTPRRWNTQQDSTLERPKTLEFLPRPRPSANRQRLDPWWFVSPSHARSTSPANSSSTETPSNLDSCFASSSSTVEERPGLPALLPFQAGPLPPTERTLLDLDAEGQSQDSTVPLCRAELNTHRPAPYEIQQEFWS
smiles,measurement,setting,value
C[C@H](C(=O)O)[C@@H](NC(=O)c1ncnc2[nH]ccc12)c1ccc(Br)cc1 [ASAP-0014722],remaining activity at 10 µM,CK2α2(h); batch_name=ASAP-0014722-002,91%
same,remaining activity at 10 µM,MLK1(h); batch_name=ASAP-0014722-002,86%
same,remaining activity at 10 µM,Mnk2(h); batch_name=ASAP-0014722-002,110%
same,remaining activity at 10 µM,PKBα(h); batch_name=ASAP-0014722-002,95%
same,remaining activity at 10 µM,CDK1/cyclinB(h); batch_name=ASAP-0014722-002,92%
same,remaining activity at 10 µM,CDK2/cyclinA(h); batch_name=ASAP-0014722-002,102%
same,remaining activity at 10 µM,Abl(h); batch_name=ASAP-0014722-002,97%
same,remaining activity at 10 µM,PAK2(h); batch_name=ASAP-0014722-002,95%
same,remaining activity at 10 µM,IGF-1R(h); batch_name=ASAP-0014722-002,95%
same,remaining activity at 10 µM,EGFR(h); batch_name=ASAP-0014722-002,93%
same,remaining activity at 10 µM,PKA(h); batch_name=ASAP-0014722-002,87%
same,remaining activity at 10 µM,EphA5(h); batch_name=ASAP-0014722-002,99%
same,remaining activity at 10 µM,GSK3β(h); batch_name=ASAP-0014722-002,93%
same,remaining activity at 10 µM,AMPKα1(h); batch_name=ASAP-0014722-002,93%
same,remaining activity at 10 µM,TAK1(h); batch_name=ASAP-0014722-002,95%
same,remaining activity at 10 µM,c-RAF(h); batch_name=ASAP-0014722-002,108%
COc1ccc([C@H](Cc2nnn[nH]2)NC(=O)c2ncnc3[nH]ccc23)cc1 [ASAP-0015381],remaining activity at 10 µM,CK2α2(h); batch_name=ASAP-0015381-001,93%
same,remaining activity at 10 µM,MLK1(h); batch_name=ASAP-0015381-001,87%
same,remaining activity at 10 µM,Mnk2(h); batch_name=ASAP-0015381-001,115%
same,remaining activity at 10 µM,PKBα(h); batch_name=ASAP-0015381-001,97%
same,remaining activity at 10 µM,CDK1/cyclinB(h); batch_name=ASAP-0015381-001,98%
same,remaining activity at 10 µM,CDK2/cyclinA(h); batch_name=ASAP-0015381-001,113%
same,remaining activity at 10 µM,Abl(h); batch_name=ASAP-0015381-001,102%
same,remaining activity at 10 µM,PAK2(h); batch_name=ASAP-0015381-001,107%
same,remaining activity at 10 µM,IGF-1R(h); batch_name=ASAP-0015381-001,103%
same,remaining activity at 10 µM,EGFR(h); batch_name=ASAP-0015381-001,97%
same,remaining activity at 10 µM,PKA(h); batch_name=ASAP-0015381-001,88%
same,remaining activity at 10 µM,EphA5(h); batch_name=ASAP-0015381-001,102%
same,remaining activity at 10 µM,GSK3β(h); batch_name=ASAP-0015381-001,90%
same,remaining activity at 10 µM,AMPKα1(h); batch_name=ASAP-0015381-001,97%
same,remaining activity at 10 µM,TAK1(h); batch_name=ASAP-0015381-001,99%
same,remaining activity at 10 µM,c-RAF(h); batch_name=ASAP-0015381-001,103%
